Columns and labels:
Details in all cases: main component drawn
[1] = tested on: S. aureus Newman; test: fitness (endpoint OD595 vs no drug) (fraction); higher = more growth
Outline: (§1)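 Fitness is computed from the optical density at which cultures reach stationary phase, divided by the robust mean of no-drug control wells. Any value above 1 is set to 1. Cultures started at OD595 0.01 in 384-well plates with TSB, LB Lennox or CY at 37 °C, and OD595 was read every 30 min for 14 h against a first-reading background.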

[2] = tested on: B. subtilis 168; test: as above
Outline: as §1

[3] = tested on: S. aureus Newman; test: Bliss interaction score (quartile over a dose matrix) (fitness difference); higher = more antagonism (negative = synergy)
Outline: (§2)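 Quartiles summarise the Bliss score over technical, biological and donor/recipient replicates, where the score is observed minus expected fitness under a product model. Expected fitness uses single-drug values inferred from combination data. Fitness is OD595 at entry into stationary phase over the plate's robust no-drug mean, capped at 1.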

[4] = tested on: B. subtilis 168; test: as above
Outline: as §2

[5] = tested on: S. pneumoniae D39V; test: as above
Outline: as §2

[6] = tested on: S. aureus DSM 20231; test: as above
Outline: as §2
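Wherever Bliss interaction score (quartile over a dose matrix) is given: first quartile when negative (synergy) and third quartile when positive (antagonism).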

CC[C@H](C)[C@H](N)C1=N[C@H](C(=O)N[C@@H](CC(C)C)C(=O)N[C@H](CCC(=O)O)C(=O)N[C@H](C(=O)N[C@H]2CCCCNC(=O)[C@H](CC(N)=O)NC(=O)[C@@H](CC(=O)O)NC(=O)[C@H](Cc3cnc[nH]3)NC(=O)[C@@H](Cc3ccccc3)NC(=O)[C@H]([C@@H](C)CC)NC(=O)[C@@H](CCCN)NC2=O)[C@@H](C)CC)CS1 [Bacitracin] + CN(C)c1cc(NC(=O)CNC(C)(C)C)c(O)c2c1C[C@H]1C[C@H]3[C@H](N(C)C)C(O)=C(C(N)=O)C(=O)[C@@]3(O)C(O)=C1C2=O [Tigecycline]
fitness
Details | partner 0.039 µg/mL | partner 0.078 µg/mL | partner 0.156 µg/mL
[1], first compound 18.75 µg/mL | 0.705 | 0.707 | 0.724
[1], first compound 75 µg/mL | 0.0511 | 0.058 | 0.0883
[2], first compound 37.5 µg/mL | 0.997 | 0.946 | 0.867
[2], first compound 75 µg/mL | ≥ 1 | 0.859 | 0.933

fitness, [2], one replicate
Details | first compound 37.5 µg/mL | first compound 75 µg/mL | first compound 150 µg/mL
partner 0.125 µg/mL | ≥ 1 | ≥ 1 | ≥ 1
partner 0.25 µg/mL | 0.907 | 0.892 | 0.855
partner 0.5 µg/mL | 0.915 | 0.947 | 0.914

Details | Bliss interaction score
[3] | 0.0592
[4] | 0.0848
[5] | 0.0672
[6] | 0.0393

CC[C@H](C)[C@H](N)C1=N[C@H](C(=O)N[C@@H](CC(C)C)C(=O)N[C@H](CCC(=O)O)C(=O)N[C@H](C(=O)N[C@H]2CCCCNC(=O)[C@H](CC(N)=O)NC(=O)[C@@H](CC(=O)O)NC(=O)[C@H](Cc3cnc[nH]3)NC(=O)[C@@H](Cc3ccccc3)NC(=O)[C@H]([C@@H](C)CC)NC(=O)[C@@H](CCCN)NC2=O)[C@@H](C)CC)CS1 [Bacitracin] + COc1c(N2C[C@@H]3CCCN[C@@H]3C2)c(F)cc2c(=O)c(C(=O)O)cn(C3CC3)c12 [Moxifloxacin]
fitness
Details | partner 0.0075 µg/mL | partner 0.015 µg/mL | partner 0.03 µg/mL | partner 0.0312 µg/mL | partner 0.0625 µg/mL | partner 0.125 µg/mL | partner 2 µg/mL | partner 4 µg/mL | partner 8 µg/mL
[1], first compound 18.75 µg/mL | 0.614 | 0.482 | 0.0523 | – | – | – | – | – | –
[1], first compound 37.5 µg/mL | 0.133 | 0.0255 | 0.0043 | – | – | – | – | – | –
[1], first compound 75 µg/mL | 0.0091 | 0.0053 | 0.0025 | – | – | – | – | – | –
[2], first compound 37.5 µg/mL | – | – | – | 0.0427 | 0.0342 | 0.0345 | 0.0202 | 0.0156 | 0.0081
[2], first compound 75 µg/mL | – | – | – | 0.022 | 0.026 | 0.0158 | 0.0179 | 0.0161 | 0.009
[2], first compound 150 µg/mL | – | – | – | 0.019 | 0.0046 | 0.0203 | 0.0204 | 0.0121 | 0.0111

Details | Bliss interaction score
[3] | -0.078
[4] | -0.0316
[5] | 0.0806
[6] | 0.0317

CC[C@H](C)[C@H](N)C1=N[C@H](C(=O)N[C@@H](CC(C)C)C(=O)N[C@H](CCC(=O)O)C(=O)N[C@H](C(=O)N[C@H]2CCCCNC(=O)[C@H](CC(N)=O)NC(=O)[C@@H](CC(=O)O)NC(=O)[C@H](Cc3cnc[nH]3)NC(=O)[C@@H](Cc3ccccc3)NC(=O)[C@H]([C@@H](C)CC)NC(=O)[C@@H](CCCN)NC2=O)[C@@H](C)CC)CS1 [Bacitracin] + C[n+]1ccc(-c2cc[n+](C)cc2)cc1 [Paraquat]
fitness
Details | first compound 18.75 µg/mL | first compound 37.5 µg/mL | first compound 75 µg/mL | first compound 150 µg/mL
[1], partner 1.25 µg/mL | 0.673 | 0.276 | 0.0637 | –
[1], partner 2.5 µg/mL | 0.725 | 0.315 | 0.0696 | –
[1], partner 5 µg/mL | 0.669 | 0.349 | 0.0708 | –
[2], partner 1.25 µg/mL | – | 0.931 | 0.924 | 0.844
[2], partner 2.5 µg/mL | – | 0.886 | 0.846 | 0.826
[2], partner 5 µg/mL | – | 0.746 | 0.656 | –

Details | Bliss interaction score
[3] | 0.0836
[4] | 0.115
[5] | 0.0921
[6] | -0.0542

CC[C@H](C)[C@H](N)C1=N[C@H](C(=O)N[C@@H](CC(C)C)C(=O)N[C@H](CCC(=O)O)C(=O)N[C@H](C(=O)N[C@H]2CCCCNC(=O)[C@H](CC(N)=O)NC(=O)[C@@H](CC(=O)O)NC(=O)[C@H](Cc3cnc[nH]3)NC(=O)[C@@H](Cc3ccccc3)NC(=O)[C@H]([C@@H](C)CC)NC(=O)[C@@H](CCCN)NC2=O)[C@@H](C)CC)CS1 [Bacitracin] + COc1cccc2c1C(=O)c1c(O)c3c(c(O)c1C2=O)C[C@@](O)(C(=O)CO)C[C@@H]3O[C@H]1C[C@H](N)[C@H](O)[C@H](C)O1 [Doxorubicin]
fitness
Details | partner 0.625 µg/mL | partner 1.25 µg/mL | partner 2.5 µg/mL
[1], first compound 18.75 µg/mL | 0.607 | 0.598 | 0.513
[1], first compound 75 µg/mL | 0.0711 | 0.0343 | 0.0074
[2], first compound 37.5 µg/mL | 0.889 | 0.851 | 0.686
[2], first compound 75 µg/mL | 0.827 | 0.792 | –
[2], first compound 150 µg/mL | 0.691 | 0.653 | –

Details | Bliss interaction score
[3] | 0.0938
[4] | 0.0797
[5] | -0.0704
[6] | 0.115

CC[C@H](C)[C@H](N)C1=N[C@H](C(=O)N[C@@H](CC(C)C)C(=O)N[C@H](CCC(=O)O)C(=O)N[C@H](C(=O)N[C@H]2CCCCNC(=O)[C@H](CC(N)=O)NC(=O)[C@@H](CC(=O)O)NC(=O)[C@H](Cc3cnc[nH]3)NC(=O)[C@@H](Cc3ccccc3)NC(=O)[C@H]([C@@H](C)CC)NC(=O)[C@@H](CCCN)NC2=O)[C@@H](C)CC)CS1 [Bacitracin] + COc1ccc(C[C@H](N)C(=O)N[C@H]2[C@@H](O)[C@H](n3cnc4c(N(C)C)ncnc43)O[C@@H]2CO)cc1 [Puromycin]
fitness
Details | first compound 18.75 µg/mL | first compound 37.5 µg/mL | first compound 75 µg/mL | first compound 150 µg/mL
[1], partner 0.39 µg/mL | 0.693 | – | 0.0319 | –
[1], partner 0.78 µg/mL | 0.687 | 0.197 | 0.0272 | –
[1], partner 1.56 µg/mL | 0.685 | 0.0934 | 0.0307 | –
[2], partner 0.39 µg/mL | – | 0.901 | 0.875 | 0.793
[2], partner 0.78 µg/mL | – | 0.959 | 0.958 | –
[2], partner 1.56 µg/mL | – | 0.903 | 0.881 | –

Details | Bliss interaction score
[3] | -0.0486
[4] | 0.0815
[5] | 0.048
[6] | -0.0671

CC[C@H](C)[C@H](N)C1=N[C@H](C(=O)N[C@@H](CC(C)C)C(=O)N[C@H](CCC(=O)O)C(=O)N[C@H](C(=O)N[C@H]2CCCCNC(=O)[C@H](CC(N)=O)NC(=O)[C@@H](CC(=O)O)NC(=O)[C@H](Cc3cnc[nH]3)NC(=O)[C@@H](Cc3ccccc3)NC(=O)[C@H]([C@@H](C)CC)NC(=O)[C@@H](CCCN)NC2=O)[C@@H](C)CC)CS1 [Bacitracin] + CN[C@@H]1[C@H](O[C@H]2[C@H](O[C@H]3[C@H](O)[C@@H](O)[C@H](N=C(N)N)[C@@H](O)[C@@H]3N=C(N)N)O[C@@H](C)[C@]2(O)C=O)O[C@@H](CO)[C@H](O)[C@H]1O [Streptomycin]
fitness
Details | first compound 18.75 µg/mL | first compound 37.5 µg/mL | first compound 75 µg/mL | first compound 150 µg/mL
[1], partner 1 µg/mL | – | 0.0508 | 0.0138 | –
[1], partner 2 µg/mL | – | 0.0177 | 0.0112 | –
[1], partner 4 µg/mL | 0.0347 | 0.0049 | 0.0045 | –
[2], partner 2 µg/mL | – | 0.908 | 0.807 | –
[2], partner 8 µg/mL | – | 0.0363 | 0.0188 | 0.0134

Details | Bliss interaction score
[3] | -0.323
[4] | -0.234
[5] | -0.146
[6] | -0.0869

CC[C@H](C)[C@H](N)C1=N[C@H](C(=O)N[C@@H](CC(C)C)C(=O)N[C@H](CCC(=O)O)C(=O)N[C@H](C(=O)N[C@H]2CCCCNC(=O)[C@H](CC(N)=O)NC(=O)[C@@H](CC(=O)O)NC(=O)[C@H](Cc3cnc[nH]3)NC(=O)[C@@H](Cc3ccccc3)NC(=O)[C@H]([C@@H](C)CC)NC(=O)[C@@H](CCCN)NC2=O)[C@@H](C)CC)CS1 [Bacitracin] + CO/N=C(\C(=O)N[C@@H]1C(=O)N2C(C(=O)O)=C(COC(C)=O)CS[C@H]12)c1csc(N)n1 [Cefotaxime]
fitness
Details | partner 0.078 µg/mL | partner 0.156 µg/mL | partner 0.312 µg/mL | partner 0.5 µg/mL | partner 0.625 µg/mL | partner 1 µg/mL | partner 1.25 µg/mL | partner 2 µg/mL | partner 2.5 µg/mL
[1], first compound 18.75 µg/mL | 0.465 | 0.0868 | 0.0343 | – | 0.0178 | – | 0.0266 | – | 0.0285
[1], first compound 37.5 µg/mL | 0.0257 | 0.0132 | 0.0259 | – | 0.0287 | – | 0.0203 | – | 0.0237
[1], first compound 75 µg/mL | 0.0416 | 0.031 | 0.0324 | – | 0.0342 | – | 0.0412 | – | 0.0372
[2], first compound 37.5 µg/mL | – | – | – | 0.274 | – | 0.137 | – | 0.134 | –
[2], first compound 75 µg/mL | – | – | – | 0.202 | – | 0.0939 | – | 0.0639 | –
[2], first compound 150 µg/mL | – | – | – | 0.0854 | – | 0.0162 | – | 0.0303 | –

fitness, [2], one replicate
Details | partner 0.00775 µg/mL | partner 0.0155 µg/mL | partner 0.031 µg/mL | partner 0.0625 µg/mL | partner 0.125 µg/mL | partner 0.25 µg/mL
first compound 37.5 µg/mL | 0.831 | 0.724 | 0.52 | 0.479 | 0.314 | 0.297
first compound 75 µg/mL | 0.749 | 0.521 | 0.342 | 0.257 | 0.12 | 0.111
first compound 150 µg/mL | 0.326 | 0.035 | 0 | 0.0561 | 0.0401 | 0.0433

Details | Bliss interaction score
[3] | -0.1
[4] | -0.1
[5] | -0.0668
[6] | -0.0827
